Reference: publication PMC10861747, “In vitro evaluation of the reductive carbonyl idarubicin metabolism to evaluate inhibitors of the formation of cardiotoxic idarubicinol via carbonyl and aldo–keto reductases” (Archives of Toxicology, 2024)

Assays:
AKR1C3 [1] = molecular target: T1, AKR1C3 (Homo sapiens, UniProt P42330); assay: idarubicinol formation (UPLC-MS/MS) in AKR1C3-transfected HEK293 cells versus empty-vector cells, […] idarubicin; type: cell-based
T1 construct: AKR1C3 human ORF-Clone transiently over-expressed in HEK293 cells
T1 sequence (P42330 1-323): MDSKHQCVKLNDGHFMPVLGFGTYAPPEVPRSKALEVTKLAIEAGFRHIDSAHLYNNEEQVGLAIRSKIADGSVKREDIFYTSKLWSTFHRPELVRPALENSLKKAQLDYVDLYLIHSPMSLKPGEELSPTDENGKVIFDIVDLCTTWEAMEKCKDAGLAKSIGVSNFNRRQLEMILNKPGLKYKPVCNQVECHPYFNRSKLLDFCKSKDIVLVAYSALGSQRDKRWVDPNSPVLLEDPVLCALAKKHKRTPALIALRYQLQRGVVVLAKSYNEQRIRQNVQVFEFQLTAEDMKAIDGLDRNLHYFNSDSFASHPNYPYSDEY

AKR1C3 [2] = molecular target: T1, AKR1C3; assay: inhibition of idarubicinol formation (UPLC-MS/MS) in HEK293 cells over-expressing AKR1C3, compared with empty-vector control; type: cell-based

| Compound | idarubicinol formation (UPLC-MS/MS) in AKR1C3-transfected HEK293 cells versus em (AKR1C3 [1]) | IC50 (AKR1C3 [2]) |
| --- | --- | --- |
| CC(=O)[C@]1(O)Cc2c(O)c3c(c(O)c2[C@@H](O[C@H]2C[C@H](N)[C@H](O)[C@H](C)O2)C1)C(=O)c1ccccc1C3=O [idarubicin] | the over-expression lead to a significantly higher idarubicinol formation in HEK293 cells |  |
| O=C1C[C@@]2(C(=O)N1)C(=O)N(Cc1ccc(Br)cc1F)C(=O)c1cccn12 [ranirestat] |  | 500 ± 100 nM |
